Data as given in patent publication US8614211B2, “Certain chemical entities, compositions, and methods” (NeuPharma, Inc., priority 2011, dated 2013).

Test system: A549 cells
Experiment: Inhibition of cell growth in tumor cells, MTT assay
Assay type: cell-based
Conditions: Homo sapiens, A549, 72 h, read-out: A549 cell IC50
Experimental: Inhibition of cell growth by compounds was measured using MTT assay (Mosmann, T., Journal of Immunological Methods, 1983, 65, 55-63). Tumor cell lines were purchased from ATCC (American Type Culture Collection, Manassas, Va.). All cell lines were maintained in RPMI 1640 (Hyclone) supplemented with 10% fetal bovine serum (FBS, Hyclone), glutamine (2 mM, Hyclone), and antibiotics (penicillin 100 U/mL and streptomycin 50 μg/mL) at 37° C. in a humidified atmosphere of 5% CO2 in air. Taxol (positive control, Sigma) and compounds were dissolved in DMSO (Sigma), and the final concentration of DMSO in the medium was 1%. Tumor cells were plated in 96-well plates at densities from 4000 cells/well of a 96-well plate and allowed to adhere/grow for 24 h. They were then treated with various concentrations of drug for 72 h. 3-(4,5-Dimethylthiazol-2-yl)-2,5-diphenyltetrazolium bromide (MTT, Sigma) was used to determine the number of viable cells at the time of compound addition and the number of cells remaining after 72 h compound exposure. The number of cells remaining after 72 h was compared to the number of viable cells at the time of compound addition by measuring the absorbance at 570 nm, allowing for the calculation of growth inhibition.
All concentrations of compounds were tested in triplicate and controls were averaged over 4 wells. IC50 was calculated by plotting the concentration of compound vs the percentage of inhibition in treated wells using GraphPad Prism 5. […]

Structure (SMILES) | IC50 [nM]
COCCN1CCN(C(=O)Oc2ccc(C[C@H]3C(=O)OC[C@@H]3Cc3ccc(OC)c(OC)c3)cc2OC)CC1 [4-(((3R,4R)-4-(3,4-dimethoxybenzyl)-2-oxotetrahydrofuran-3-yl)methyl)-2-methoxyphenyl 4-(2-methoxyethyl)piperazine-1-carboxylate] | 788
COc1ccc(C[C@H]2COC(=O)[C@@H]2Cc2ccc(OC(=O)N3CCN(C)CC3)c(OC)c2)cc1OC [4-(((3R,4R)-4-(3,4-dimethoxybenzyl)-2-oxotetrahydrofuran-3-yl)methyl)-2-methoxyphenyl 4-methylpiperazine-1-carboxylate] | 850
COc1ccc(C[C@H]2COC(=O)[C@@H]2Cc2ccc(OC(=O)N(C)CCN(C)C)c(OC)c2)cc1OC [4-(((3R,4R)-4-(3,4-dimethoxybenzyl)-2-oxotetrahydrofuran-3-yl)methyl)-2-methoxyphenyl (2-(dimethylamino)ethyl)(methyl)carbamate] | 1020
COc1ccc(C[C@H]2COC(=O)[C@@H]2Cc2ccc(OC(=O)N(C)CCO)c(OC)c2)cc1OC [4-(((3R,4R)-4-(3,4-dimethoxybenzyl)-2-oxotetrahydrofuran-3-yl)methyl)-2-methoxyphenyl (2-hydroxyethyl)(methyl)carbamate] | 1070
COCCN(C)C(=O)Oc1ccc(C[C@H]2C(=O)OC[C@@H]2Cc2ccc(OC)c(OC)c2)cc1OC [4-(((3R,4R)-4-(3,4-dimethoxybenzyl)-2-oxotetrahydrofuran-3-yl)methyl)-2-methoxyphenyl (2-methoxyethyl)(methyl)carbamate] | 687
COc1ccc(C[C@H]2COC(=O)[C@@H]2Cc2ccc(OC(=O)N(C)C)c(OC)c2)cc1OC [4-(((3R,4R)-4-(3,4-dimethoxybenzyl)-2-oxotetrahydrofuran-3-yl)methyl)-2-methoxyphenyl dimethylcarbamate] | 521
COc1ccc(C[C@H]2COC(=O)[C@@H]2Cc2ccc(OC(=O)N3CCNCC3)c(OC)c2)cc1OC [4-(((3R,4R)-4-(3,4-dimethoxybenzyl)-2-oxotetrahydrofuran-3-yl)methyl)-2-methoxyphenyl piperazine-1-carboxylate] | 799
COc1ccc(C[C@H]2COC(=O)[C@@H]2Cc2ccc(OC(=O)N3CC[C@H](N)C3)c(OC)c2)cc1OC [(S)-4-(((3R,4R)-4-(3,4-dimethoxybenzyl)-2-oxotetrahydrofuran-3-yl)methyl)-2-methoxyphenyl 3-aminopyrrolidine-1-carboxylate] | 923

Same assay, conditions: Homo sapiens; MTT assay, 72 h compound exposure, A549 cells; read-out: A549 cell IC50

Structure (SMILES) | IC50 [nM]
COc1ccc(C[C@H]2COC(=O)[C@@H]2Cc2ccc(OC(=O)N3CCOCC3)c(OC)c2)cc1OC [4-(((3R,4R)-4-(3,4-dimethoxybenzyl)-2-oxotetrahydrofuran-3-yl)methyl)-2-methoxyphenyl morpholine-4-carboxylate] | 767
COc1ccc(C[C@H]2COC(=O)[C@@H]2Cc2ccc(OC(=O)N3CCCCC3)c(OC)c2)cc1OC [4-(((3R,4R)-4-(3,4-dimethoxybenzyl)-2-oxotetrahydrofuran-3-yl)methyl)-2-methoxyphenyl piperidine-1-carboxylate] | 659
COc1ccc(C[C@H]2COC(=O)[C@@H]2Cc2ccc(OC(=O)N3CCCC3)c(OC)c2)cc1OC [4-(((3R,4R)-4-(3,4-dimethoxybenzyl)-2-oxotetrahydrofuran-3-yl)methyl)-2-methoxyphenyl pyrrolidine-1-carboxylate] | 785
COc1ccc(C[C@H]2COC(=O)[C@@H]2Cc2ccc(OC(=O)N3CC[C@@H](NC(=O)OC(C)(C)C)C3)c(OC)c2)cc1OC [(R)-4-(((3R,4R)-4-(3,4-dimethoxybenzyl)-2-oxotetrahydrofuran-3-yl)methyl)-2-methoxyphenyl 3-((tert-butoxycarbonyl)amino) pyrrolidine-1-carboxylate] | 585
COc1ccc(C[C@H]2COC(=O)[C@@H]2Cc2ccc(OC(=O)N3CC[C@@H](O)C3)c(OC)c2)cc1OC [(R)-4-(((3R,4R)-4-(3,4-dimethoxybenzyl)-2-oxotetrahydrofuran-3-yl)methyl)-2-methoxyphenyl 3-hydroxypyrrolidine-1-carboxylate] | 587
COc1ccc(C[C@H]2COC(=O)[C@@H]2Cc2ccc(OC(=O)N3CC[C@H](O)C3)c(OC)c2)cc1OC [(S)-4-(((3R,4R)-4-(3,4-dimethoxybenzyl)-2-oxotetrahydrofuran-3-yl)methyl)-2-methoxyphenyl 3-hydroxypyrrolidine-1-carboxylate] | 841
